Assay results reported in patent US6285807A, “Fiber optic sensor for long-term analyte measurements in fluids” (Trustees of Tufts College, priority 1998, dated 2001).
“And” between values parts separate entries of the source, which are not always exact repeats. Equal entries are not always repeated. Where two headings read alike, the source gives them in different places.

Assays:
[1] = Absorbance/emission spectra of carboxy-SNAFL-1 (excitation at 488 nm); type: physicochemical; conditions: for Emission (Ex. = 488 nm) (acid): acid form; for Emission (Ex. = 488 nm) (acid) / Emission (Ex. = 488 nm) (base) / Emission (Ex. = 488 nm) (isos): at 21° C.; for Emission (Ex. = 488 nm) (base): base form; for Emission (Ex. = 488 nm) (isos): isosbestic
Source text: These peaks are centered at 540 nm and 620 nm and result from the protonated and deprotonated forms of the dyes respectively. This dual wavelength feature of the dye makes it particularly suitable for use in a ratiometric mode which accounts for system instabilities, such as photobleaching and lamp intensity fluctuations. This dye also has an isosbestic point at 625 run (Ex.=488 nm) which can be used for ratiometric measurements to assess the extent of dye photobleaching over time.
The maxima centered at 540 nm and 620 nm arise from the protonated and deprotonated forms of the dye respectively. [drawing 3]
The measurement system 100 comprises a Spectra Physics Model 162A-04 argon-ion laser 105 which provides excitation light radiation, typically at 488 nm. The excitation light is passed through a neutral density filter 110 and an angled dichroic mirror 115 to the proximal end 120 of an optical fiber 125 which conveys the excitation light to the distal end 130 of the fiber 125 and illuminates an optical interrogation zone 135 comprising a fluid sample volume with an indicator dye and analyte. In the presence of the analyte, the excitation light causes the indicator dye to emit emitted light energy in the optical interrogation zone 135, which emitted light is conveyed by the fiber 125 to the proximal end 120 and is deflected through 90° by the front surface 116 of the angled dichroic mirror 115. The emitted light is then focussed with lenses 145, filtered through a long wavelength, band-pass filter 150, and passed through a slit 155 into a monochromater 160. The resulting wavelength-dispersed signal is measured with a Pacific Instruments Model 126. photo-counting detection system. The intensity of the excitation light is measured in photon counts per second as either a function of time or of wavelength examined.

[2] = Sensor calibration for CO2, constants from theoretical fit (indicator in sensor); type: physicochemical; conditions: sensor (at 12° C.) (calculated)
Description: The calibration and operation of the sensor operation of the sensor is based on the Severinghaus electrode principle. When carbon dioxide crosses the membrane, the pH of the indicator solution is given by the Henderson-Hasselbach equation: [formula]
where aT =KH KM pCO2 KH /mol dm^3 atm^-1 is Henry's constant and KM is the membrane constant. Substituting Equation 7 into Equation 5 and rearranging gives: [formula]
The dissolved CO2 concentration was determined using Henry's constant [Cox, J. D., Head A. J. J Chem. Soc. Faraday Trans., 1962, 58, 1839]. […] Also, for this calculation the membrane volume was not corrected for the porosity, or water content, of the membrane. These parameters would have opposite effects. In the calibration, aT was assumed to equal the dissolved CO2 in the bulk solution, such that KM =1. The sensitivity of the sensor is approximately ±1 ppm.
The theoretical equation relating the fluorescence intensity. ratio to pCO2 was compared to test date and is shown by the solid curve in FIG. 6. The pHo value was calculated from Equation 5 using pKin while Io was derived from the above analysis. There was good agreement between experimental and theoretically-derived data.

[3] = 13 and 14; cited from earlier work
[4] = 13 and 14, at 21° C., cited from earlier work
[5] = Fluorescence emission pH titration of carboxy-SNAFL-1 (curve fits for Io, pKin and B); type: physicochemical; conditions: for I(543/623) (max) / I(543/623) (min) / pKin: at 21° C.
Source text: Where the fluorescence intensity I=dh and I0 =dhT, the fluorescence intensity when the indicator is fully undissociated, Equation 4 becomes: [formula]
In this equation the additional term B is the background fluorescence of the system and is an experimentally-derived value. I can also be the ratio of the fluorescence intensities of the protonated and isosbestic forms, where. I=I545 /Iisos
The titration curves are shown for carboxy-SNAFL-1in distilled water and in a 0.67 M solution of NaCl. The solid lines are the theoretical curve fits using Equation 6. […] Experiments were carried out in 0.67 M NaCl because it is necessary to balance the osmotic pressure of the indicator solution in the sensor to that of the test solution. The osmotic pressure of the seawater is equivalent to 0.67 M NaCI.
The solid lines in FIG. 2 are theoretical fits of Equation 5. The results for Io, pKin, and B are summarized in Table 2 together with typical values reported elsewhere [Walt, D. R, Gabor, G., Goyet, C. Anal. Chim. Actca 1993, 274, 47; DeGrandpre, M. D., Anal. Chem. 1993, 65 (4), 331; Whitaker, J. E., Haugland, R. P., Prendergast, R P. Anal. Biochem. 1991, 194, 330].

[6] = 13 and 14; at 21° C.; cited from earlier work
[7] = distilled water (25° C.), 488 nm excitation

isosbestic point ([1]; Ex.=488 nm): 625 nm
emission maximum, deprotonated form [1, 7]: 620 nm
emission maximum, protonated form [1, 7]: 540 nm
emission peak, deprotonated form ([1]; excited at 488 nm): 620 nm
emission peak, protonated form ([1]; excited at 488 nm): 540 nm
Emission (Ex. = 488 nm) (acid) ([1]; in 0.67M NaCl): 542 nm
Emission (Ex. = 488 nm) (base) ([1]; in 0.67M NaCl): 620 nm
Emission (Ex. = 488 nm) (isos) ([1]; in 0.67M NaCl): 624 nm
Emission (Ex. = 488 nm) (acid) ([1]; in H2O): 545 nm
Emission (Ex. = 488 nm) (base) ([1]; in H2O): 618 nm
Emission (Ex. = 488 nm) (isos) ([1]; in H2O): 632 nm
I(543/623) (max) [2]: 5.54
pKin [2]: 7.98
Emission (Ex. = 488 nm) (acid) ([2]; acid form): 545 nm
Emission (Ex. = 488 nm) (base) ([2]; base form): 610 nm
effect of increasing ionic strength on maximum fluorescence intensity ([5]; distilled water vs 0.67 M NaCl): decreases with increasing ionic strength
effect of increasing ionic strength on pKin ([5]; distilled water vs 0.67 M NaCl): decreases pKin
I(543/623) (max) ([5]; in 0.67M NaCl): 5.27
I(543/623) (min) ([5]; in 0.67M NaCl): 0.129
pKin ([5]; in 0.67M NaCl): 7.67
I(543/623) (max) ([5]; in H2O): 5.41
I(543/623) (min) ([5]; in H2O): 0.145
pKin ([5]; in H2O): 8.01
Substance: 5' (and 6')-carboxyseminaphthofluorescein [carboxy-SNAFL-1]
ΔH° [3]: 3.78 kcal/mol
ΔS° [3]: -22.6 cal mol^-1 K^-1
ΔpH/ΔT [3]: 0.0192 ° C.^-1
Absorbance (acid) ([4]; acid form): 481 nm and 510 nm
Emission (Ex. = 488 nm) (acid) ([4]; acid form): 542 nm
Absorbance (base) ([4]; base form): 539 nm
Emission (Ex. = 488 nm) (base) ([4]; base form): 623 nm
Emission (Ex. = 488 nm) (isos) ([4]; isosbestic): 615 nm
I(543/623) (max) [6]: 6.13
I(543/623) (min) [6]: 0.09
pKin [6]: 7.75
